Assay results taken from patent US20020137929A1, “1 - (3-heterocyclylphenyl) isothiourea, -isourea, -guanidine and -amidine herbicidal agents” (Intellectual Property Department, BASF Aktiengesellschaft, priority 1998, published 2002).

Assays:
[1] = system: GLXMAW (Soybean, Williams); assay: Preemergence herbicidal evaluation; format: in vivo, Glycine max, (L.) Merr. cv Williams; settings: preemergence, rated 4-5 weeks after treatment, 0-9 scale
Outline: (§1)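 In this greenhouse assay, monocot and dicot seeds are planted in soil and treated prior to emergence with an aqueous acetone spray (about 0.0156-0.500 kg/ha). Plants are assessed visually against control on a 0-9 scale after 4-5 weeks.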

[2] = system: CASOB (Sicklepod); assay: Postemergence herbicidal evaluation; format: in vivo, Cassia obtusifolia; settings: postemergence
Outline: (§2)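 Rate range approx. 0.0156–0.500 kg/ha. Foliar application at 40 psi to ~2-week seedlings; surfactant 0.5% TWEEN 20 in 50/50 acetone/water. Evaluation 4–5 wk post-treatment by 0–9 visual injury score, means of replicate tests.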

[3] = system: SAGPY (Arrowhead (Pygmaea)); assay: Postemergence weed control under flooded paddy conditions; format: in vivo, Sagittaria pygmaea; settings: postemergence weeds, rated 3 to 4 weeks after treatment
Outline: (§3)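 Containers holding 3–5 cm weeds and rice at 1.5–2.5 leaves are flooded to 1.5–3 cm above soil. Compound in 50/50 v/v aqueous/acetone is then added directly to the water, about 0.0313–0.500 kg/ha. Plants are kept in the greenhouse and rated 0–9 visually at 3–4 weeks.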

[4] = system: CYPSE (Flatsedge); assay: Preemergence weed control under flooded paddy conditions; format: in vivo, Cyperus serotinus; settings: rated 3-4 weeks after treatment
Outline: (§4)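 First, seeds or propagules go into the top 0.5 cm of silt loam; next, water is held 1.5 to 3 cm over the soil; then compound (50/50 acetone/water) is pipetted into it at about 0.0313 to 0.500 kg/ha; finally plants are rated visually 0-9 after three to four weeks.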

[5] = system: AMBEL (Ragweed, Common); assay: Preemergence herbicidal evaluation; format: in vivo, Ambrosia artemisifolia; settings: preemergence, rated 4-5 weeks after treatment, 0-9 scale
Outline: as §1

[6] = system: ZEAMX (Corn, Field); assay: Postemergence herbicidal evaluation; format: in vivo, Zea mays; settings: postemergence
Outline: as §2

[7] = system: CHEAL (Lambsquarters, Common); assay: Postemergence herbicidal evaluation; format: in vivo, Chenopodium album; settings: postemergence
Outline: as §2

[8] = system: CYPIR (Rice Flatsedge); assay: Postemergence weed control under flooded paddy conditions; format: in vivo, Cyperus iria; settings: postemergence weeds, rated 3 to 4 weeks after treatment
Outline: as §3

[9] = system: ORYSAT (Rice, Tebonnet); assay: Preemergence herbicidal evaluation; format: in vivo, Oryza sativa, (L.) Tebonnet; settings: preemergence, rated 4-5 weeks after treatment, 0-9 scale
Outline: as §1

[10] = system: GALAP (Galium); assay: Postemergence herbicidal evaluation; format: in vivo, Galium aparine; settings: postemergence
Outline: as §2

[11] = system: MOOVA (Monochoria); assay: Preemergence weed control under flooded paddy conditions; format: in vivo, Monochoria vaginalis; settings: rated 3-4 weeks after treatment
Outline: as §4

[12] = system: SETVI (Foxtail, Green); assay: Preemergence herbicidal evaluation; format: in vivo, Setaria viridis; settings: preemergence, rated 4-5 weeks after treatment, 0-9 scale
Outline: as §1

[13] = system: ORYSAT (Rice, Tebonnet); assay: Postemergence herbicidal evaluation; format: in vivo, Oryza sativa, (L.) Tebonnet; settings: postemergence
Outline: as §2

[14] = system: CYPSE (Flatsedge); assay: Postemergence weed control under flooded paddy conditions; format: in vivo, Cyperus serotinus; settings: postemergence weeds, rated 3 to 4 weeks after treatment
Outline: as §3

In the case of CCOC(=O)CN1C(=O)C(CC(=O)OC(C)C(=O)OCC)S/C1=N/c1cc(-n2c(=O)cc(C(F)(F)F)n(C)c2=O)c(F)cc1Cl (stereo not drawn) [Compound 87], the GLXMAW rating ([1]; 0.1250 kg/ha) is reported as 0.0, the GLXMAW rating ([1]; 0.2500 kg/ha) is reported as 4.0 and the GLXMAW rating ([1]; 0.5000 kg/ha) is reported as 5.0. For the same compound, the CASOB herbicidal rating ([2]; rate 0.0156 kg/ha) was 0.0, the CASOB herbicidal rating ([2]; rate 0.0313 kg/ha) was 0.0 and the CASOB herbicidal rating ([2]; rate 0.0625 kg/ha) was 0.0. The CASOB herbicidal rating ([2]; rate 0.1250 kg/ha) was 2.0, the CASOB herbicidal rating ([2]; rate 0.2500 kg/ha) was 9.0 and the “Herbicidal rating SAGPY” value ([3]; Rate 0.0313 kg/ha) was 0.0. The “Herbicidal rating SAGPY” value ([3]; Rate 0.0625 kg/ha) was 4.0, the “Herbicidal rating SAGPY” value ([3]; Rate 0.1250 kg/ha) was 4.0 and the “Herbicidal rating SAGPY” value ([3]; Rate 0.2500 kg/ha) was 5.0. The “Herbicidal rating SAGPY” value ([3]; Rate 0.5000 kg/ha) was 7.0, the “CYPSE herbicidal effect rating” value ([4]; 0.0313 kg/ha) was 0.0 and the “CYPSE herbicidal effect rating” value ([4]; 0.0625 kg/ha) was 0.0. The “CYPSE herbicidal effect rating” value ([4]; 0.1250 kg/ha) was 5.0, the “CYPSE herbicidal effect rating” value ([4]; 0.2500 kg/ha) was 5.0 and the “CYPSE herbicidal effect rating” value ([4]; 0.5000 kg/ha) was 5.0. It also gave an AMBEL rating ([5]; 0.1250 kg/ha) of 0.0, an AMBEL rating ([5]; 0.2500 kg/ha) of 0.0 and an AMBEL rating ([5]; 0.5000 kg/ha) of 9.0. For the same compound, the ZEAMX herbicidal rating ([6]; rate 0.0156 kg/ha) was 4.0, the ZEAMX herbicidal rating ([6]; rate 0.0313 kg/ha) was 4.5 and the ZEAMX herbicidal rating ([6]; rate 0.0625 kg/ha) was 5.5. For the same compound, the ZEAMX herbicidal rating ([6]; rate 0.1250 kg/ha) was 7.5, the ZEAMX herbicidal rating ([6]; rate 0.2500 kg/ha) was 8.0 and the CHEAL herbicidal rating ([7]; rate 0.0156 kg/ha) was 0.0. For the same compound, the CHEAL herbicidal rating ([7]; rate 0.0313 kg/ha) was 0.0, the CHEAL herbicidal rating ([7]; rate 0.0625 kg/ha) was 3.0 and the CHEAL herbicidal rating ([7]; rate 0.1250 kg/ha) was 4.0. The CHEAL herbicidal rating ([7]; rate 0.2500 kg/ha) was 9.0, the “Herbicidal rating CYPIR” value ([8]; Rate 0.0313 kg/ha) was 5.0 and the “Herbicidal rating CYPIR” value ([8]; Rate 0.0625 kg/ha) was 5.0. For the same compound, the “Herbicidal rating CYPIR” value ([8]; Rate 0.1250 kg/ha) was 5.0, the “Herbicidal rating CYPIR” value ([8]; Rate 0.2500 kg/ha) was 5.0 and the “Herbicidal rating CYPIR” value ([8]; Rate 0.5000 kg/ha) was 7.0. The ORYSAT rating ([9]; 0.1250 kg/ha) was 0.0, the ORYSAT rating ([9]; 0.2500 kg/ha) was 0.0 and the ORYSAT rating ([9]; 0.5000 kg/ha) was 0.0. The GALAP herbicidal rating ([10]; rate 0.0156 kg/ha) was 0.0, the GALAP herbicidal rating ([10]; rate 0.0313 kg/ha) was 0.0 and the GALAP herbicidal rating ([10]; rate 0.0625 kg/ha) was 1.0. The GALAP herbicidal rating ([10]; rate 0.1250 kg/ha) was 1.0, the GALAP herbicidal rating ([10]; rate 0.2500 kg/ha) was 3.0 and the “MOOVA herbicidal effect rating” value ([11]; 0.0313 kg/ha) was 9.0. The “MOOVA herbicidal effect rating” value ([11]; 0.0625 kg/ha) was 9.0, the “MOOVA herbicidal effect rating” value ([11]; 0.1250 kg/ha) was 9.0 and the “MOOVA herbicidal effect rating” value ([11]; 0.2500 kg/ha) was 9.0. For the same compound, the “MOOVA herbicidal effect rating” value ([11]; 0.5000 kg/ha) was 9.0, the SETVI rating ([12]; 0.1250 kg/ha) was 0.0 and the SETVI rating ([12]; 0.2500 kg/ha) was 0.0. It also gave an SETVI rating ([12]; 0.5000 kg/ha) of 9.0, an ORYSAT herbicidal rating ([13]; rate 0.0156 kg/ha) of 0.0 and an ORYSAT herbicidal rating ([13]; rate 0.0313 kg/ha) of 0.5. For the same compound, the ORYSAT herbicidal rating ([13]; rate 0.0625 kg/ha) was 1.0, the ORYSAT herbicidal rating ([13]; rate 0.1250 kg/ha) was 1.5 and the ORYSAT herbicidal rating ([13]; rate 0.2500 kg/ha) was 4.0. The “Herbicidal rating CYPSE” value ([14]; Rate 0.0313 kg/ha) was 0.0, the “Herbicidal rating CYPSE” value ([14]; Rate 0.0625 kg/ha) was 0.0 and the “Herbicidal rating CYPSE” value ([14]; Rate 0.1250 kg/ha) was 5.0. For the same compound, the “Herbicidal rating CYPSE” value ([14]; Rate 0.2500 kg/ha) was 5.0 and the “Herbicidal rating CYPSE” value ([14]; Rate 0.5000 kg/ha) was 5.0.

Work on COC(=O)CC1SC(=Nc2cc(-n3c(=O)cc(C(F)(F)F)n(C)c3=O)c(F)cc2Cl)N(C)C1=O (stereo not drawn) [Compound 88, Methyl 2-{{2-chloro-5-[3,6-dihydro-3-methyl-2,6-dioxo-4-(trifluoromethyl)-1(2H)-pyrimidinyl]-4-fluorophenyl}imino}-3-methyl-4-oxo-5-thiazolidineacetate] yielded a GLXMAW rating ([1]; 0.0156 kg/ha) of 0.0, a GLXMAW rating ([1]; 0.0313 kg/ha) of 0.0 and a GLXMAW rating ([1]; 0.0625 kg/ha) of 0.0. The GLXMAW rating ([1]; 0.1250 kg/ha) was 4.0, the GLXMAW rating ([1]; 0.2500 kg/ha) was 9.0 and the CASOB herbicidal rating ([2]; rate 0.0158 kg/ha) was 0.0. For the same compound, the CASOB herbicidal rating ([2]; rate 0.0315 kg/ha) was 3.0, the CASOB herbicidal rating ([2]; rate 0.0630 kg/ha) was 3.0 and the “Herbicidal rating SAGPY” value ([3]; Rate 0.0313 kg/ha) was 6.0. For the same compound, the “Herbicidal rating SAGPY” value ([3]; Rate 0.0625 kg/ha) was 9.0, the “Herbicidal rating SAGPY” value ([3]; Rate 0.1250 kg/ha) was 9.0 and the “Herbicidal rating SAGPY” value ([3]; Rate 0.2500 kg/ha) was 9.0. The “CYPSE herbicidal effect rating” value ([4]; 0.0313 kg/ha) was 3.0, the “CYPSE herbicidal effect rating” value ([4]; 0.0625 kg/ha) was 5.0 and the “CYPSE herbicidal effect rating” value ([4]; 0.1250 kg/ha) was 7.0. For the same compound, the “CYPSE herbicidal effect rating” value ([4]; 0.2500 kg/ha) was 7.0, the AMBEL rating ([5]; 0.0156 kg/ha) was 0.0 and the AMBEL rating ([5]; 0.0313 kg/ha) was 0.0. The AMBEL rating ([5]; 0.0625 kg/ha) was 7.0, the AMBEL rating ([5]; 0.1250 kg/ha) was 9.0 and the AMBEL rating ([5]; 0.2500 kg/ha) was 9.0. It also gave a ZEAMX herbicidal rating ([6]; rate 0.0158 kg/ha) of 7.5, a ZEAMX herbicidal rating ([6]; rate 0.0315 kg/ha) of 8.5 and a ZEAMX herbicidal rating ([6]; rate 0.0630 kg/ha) of 9.0. It also gave a CHEAL herbicidal rating ([7]; rate 0.0158 kg/ha) of 9.0, a CHEAL herbicidal rating ([7]; rate 0.0315 kg/ha) of 9.0 and a CHEAL herbicidal rating ([7]; rate 0.0630 kg/ha) of 9.0. The “Herbicidal rating CYPIR” value ([8]; Rate 0.0313 kg/ha) was 0.0, the “Herbicidal rating CYPIR” value ([8]; Rate 0.0625 kg/ha) was 0.0 and the “Herbicidal rating CYPIR” value ([8]; Rate 0.1250 kg/ha) was 0.0. For the same compound, the “Herbicidal rating CYPIR” value ([8]; Rate 0.2500 kg/ha) was 0.0, the ORYSAT rating ([9]; 0.0156 kg/ha) was 0.0 and the ORYSAT rating ([9]; 0.0313 kg/ha) was 0.0. The ORYSAT rating ([9]; 0.0625 kg/ha) was 0.0, the ORYSAT rating ([9]; 0.1250 kg/ha) was 2.0 and the ORYSAT rating ([9]; 0.2500 kg/ha) was 7.0. It also gave a GALAP herbicidal rating ([10]; rate 0.0158 kg/ha) of 4.0, a GALAP herbicidal rating ([10]; rate 0.0315 kg/ha) of 4.0 and a GALAP herbicidal rating ([10]; rate 0.0630 kg/ha) of 4.0. For the same compound, the “MOOVA herbicidal effect rating” value ([11]; 0.0313 kg/ha) was 9.0, the “MOOVA herbicidal effect rating” value ([11]; 0.0625 kg/ha) was 9.0 and the “MOOVA herbicidal effect rating” value ([11]; 0.1250 kg/ha) was 9.0. For the same compound, the “MOOVA herbicidal effect rating” value ([11]; 0.2500 kg/ha) was 9.0, the SETVI rating ([12]; 0.0156 kg/ha) was 0.0 and the SETVI rating ([12]; 0.0313 kg/ha) was 0.0. The SETVI rating ([12]; 0.0625 kg/ha) was 3.0, the SETVI rating ([12]; 0.1250 kg/ha) was 7.0 and the SETVI rating ([12]; 0.2500 kg/ha) was 9.0. The ORYSAT herbicidal rating ([13]; rate 0.0158 kg/ha) was 2.0, the ORYSAT herbicidal rating ([13]; rate 0.0315 kg/ha) was 5.5 and the ORYSAT herbicidal rating ([13]; rate 0.0630 kg/ha) was 6.0. The “Herbicidal rating CYPSE” value ([14]; Rate 0.0313 kg/ha) was 3.0, the “Herbicidal rating CYPSE” value ([14]; Rate 0.0625 kg/ha) was 5.0 and the “Herbicidal rating CYPSE” value ([14]; Rate 0.1250 kg/ha) was 7.0. For the same compound, the “Herbicidal rating CYPSE” value ([14]; Rate 0.2500 kg/ha) was 7.0.
